Results as given in patent US20250177346A1 (priority 2022, published 2025).

How the values were obtained:
[1] = system: hair dermal papilla cells (HDPCs) derived from human hair follicles; type: cell-based
human hair follicles [2] = type: cell-based
[3] = system: hair dermal papilla cells derived from human hair follicles; type: cell-based
[4] = system: outer root sheath cells derived from human hair follicles; type: cell-based
C57BL/6 mouse model [5] = details: in vivo
[6] = system: outer root sheath cells (ORSs) derived from human hair follicles; type: cell-based
C57BL/6 mouse model [7] = details: in vivo; remark: listed apart in the source
[8] = system: outer root sheath cells derived from human hair follicles; type: cell-based; remark: listed apart in the source
[9] = system: human hair dermal papilla cells; type: cell-based
human hair follicles [10] = type: cell-based; remark: listed apart in the source

Structure (SMILES): O=C(NCc1ccc2c(c1)OCO2)c1c(Cl)cccc1Cl [Alda-1, N-(1,3-benzodioxol-5-ylmethyl)-2,6-dichlorobenzamide]
- cell viability of hair dermal papilla cells [1]: significantly increased
- proliferation of hair dermal papilla cells compared with minoxidil [1]: equivalent to or greater than those of minoxidil
- elongation of hair in human hair follicles (human hair follicles [2]): promoted the elongation of hair
- growth of hair in hair follicles compared with minoxidil (human hair follicles [2]): higher levels compared to minoxidil
- fluorescence level indicating DCFDA (oxidative stress) [3]: significantly reduced
- oxidative stress in outer root sheath cells (DCFDA level, flow cytometry) [4]: significantly reduced
- hair growth / area of hair growth in the anagen phase (C57BL/6 mouse model [5]): hair growth was shown
- cell viability of outer root sheath cells [6]: significantly increased
- proliferation of outer root sheath cells compared with minoxidil [6]: equivalent to or greater than those of minoxidil
- anagen induction score (C57BL/6 mouse model [7]): increased compared to the control
- formation of hair follicles (hematoxylin and eosin staining) (C57BL/6 mouse model [7]): promoted
- percentage of areas where hair in the anagen phase grew (C57BL/6 mouse model [7]): significantly increased
- skin thickness (C57BL/6 mouse model [7]): increased compared to the control
- ATP production of mitochondria, increase [8]: ~10 fold
- basal respiration rate [8]: remarkably increased
- maximal respiration rate [8]: remarkably increased
- oxygen consumption efficiency of outer root sheath cells [8]: increased
- protein level of basic fibroblast growth factor (bFGF) [9]: increased
- protein level of insulin-like growth factor 1 (IGF-1) [9]: increased
- protein level of keratinocyte growth factor (FGF-7) [9]: increased
- protein level of platelet-derived growth factor (PDF) [9]: increased
- Ki-67 positive cell effect compared with minoxidil (human hair follicles [10]): even better than that of minoxidil
- level of Ki-67 positive cells in hair follicles (human hair follicles [10]): increased

Structure (SMILES): Nc1cc(N2CCCCC2)nc(N)[n+]1[O-] [minoxidil, 6-piperidin-1-ylpyrimidine-2,4-diamine 3-oxide]
- hair growth / area of hair growth in the anagen phase (C57BL/6 mouse model [5]): hair growth was shown
